{
  "source": "paper PMC2819846",
  "about": "(Mutation research, 2008)",
  "format_in_all_cases": "cell-based",
  "key": {"[1]": {"tested_on": "Salmonella TA98", "assay": "Salmonella plate-incorporation mutagenicity assay, strain TA98, with S9 mix"}, "[2]": {"tested_on": "Salmonella TA100", "assay": "Salmonella plate-incorporation mutagenicity assay, strain TA100", "settings": "for Mutagenic potency, Revertants/µg ± S.E., TA100 / Mutagenicity call TA100: plate-incorporation, +S9"}, "[3]": {"tested_on": "Salmonella TA104", "assay": "Salmonella plate-incorporation mutagenicity assay, strain TA104, with S9 mix", "settings": "for Mutagenic potency, Revertants/µg ± S.E., TA104: plate-incorporation, +S9"}, "[4]": {"settings": "TA98 +S9, Test 1, 2 µg/plate, zero-dose 33/40/39"}, "[5]": {"settings": "TA98 +S9, Test 1, 5 µg/plate, zero-dose 33/40/39"}, "[6]": {"settings": "TA98 +S9, Test 1, 10 µg/plate, zero-dose 33/40/39"}, "[7]": {"settings": "TA98 +S9, Test 1, 20 µg/plate, zero-dose 33/40/39"}, "[8]": {"settings": "TA98 +S9, Test 1, 40 µg/plate, zero-dose 33/40/39"}, "[9]": {"settings": "TA98 +S9, Test 1, 80 µg/plate, zero-dose 33/40/39"}, "[10]": {"settings": "TA98 +S9, Test 2, 20 µg/plate, zero-dose 43/41/30"}, "[11]": {"settings": "TA98 +S9, Test 2, 40 µg/plate, zero-dose 43/41/30"}, "[12]": {"settings": "TA98 +S9, Test 2, 80 µg/plate, zero-dose 43/41/30"}, "[13]": {"settings": "TA98 +S9, Test 3, 20 µg/plate, zero-dose 49/50/50"}, "[14]": {"settings": "TA98 +S9, Test 3, 40 µg/plate, zero-dose 49/50/50"}, "[15]": {"settings": "TA100 +S9, Test 1, 2 µg/plate, zero-dose 99/110/110"}, "[16]": {"settings": "TA100 +S9, Test 1, 5 µg/plate, zero-dose 99/110/110"}, "[17]": {"settings": "TA100 +S9, Test 1, 10 µg/plate, zero-dose 99/110/110"}, "[18]": {"settings": "TA100 +S9, Test 1, 20 µg/plate, zero-dose 99/110/110"}, "[19]": {"settings": "TA100 +S9, Test 1, 40 µg/plate, zero-dose 99/110/110"}, "[20]": {"settings": "TA100 +S9, Test 1, 80 µg/plate, zero-dose 99/110/110"}},
  "data": [
    {"molecule": "O[C@@H]1c2ccccc2-c2c(ccc3ccccc23)[C@H]1O", "note": "(racemic) [B[c]P 5,6-diol, (± )-trans-5,6-Dihydrobenzo[c]phenanthrene 5,6-diol]", "values": [
      {"measurement": "Rev/plate", "setting": "[1]; [4]", "result": 31, "unit": "rev/plate"},
      {"measurement": "Rev/plate", "setting": "[1]; [5]", "result": 41, "unit": "rev/plate"},
      {"measurement": "Rev/plate", "setting": "[1]; [6]", "result": 41, "unit": "rev/plate"},
      {"measurement": "Rev/plate", "setting": "[1]; [7]", "result": 29, "unit": "rev/plate"},
      {"measurement": "Rev/plate", "setting": "[1]; [8]", "result": 34, "unit": "rev/plate"},
      {"measurement": "Rev/plate", "setting": "[1]; [9]", "result": 40, "unit": "rev/plate"},
      {"measurement": "Rev/plate", "setting": "[1]; TA98 +S9, Test 2, 10 µg/plate, zero-dose 43/41/30", "result": "43/42"},
      {"measurement": "Rev/plate", "setting": "[1]; [10]", "result": "27/49"},
      {"measurement": "Rev/plate", "setting": "[1]; [11]", "result": "46/33"},
      {"measurement": "Rev/plate", "setting": "[1]; [12]", "result": "52/35"},
      {"measurement": "Rev/plate", "setting": "[1]; TA98 +S9, Test 3, 10 µg/plate, zero-dose 49/50/50", "result": "51/47"},
      {"measurement": "Rev/plate", "setting": "[1]; [13]", "result": "46/60"},
      {"measurement": "Rev/plate", "setting": "[1]; [14]", "result": "51/47"},
      {"measurement": "Rev/plate", "setting": "[1]; TA98 +S9, Test 3, 100 µg/plate, zero-dose 49/50/50", "result": "32/47"},
      {"measurement": "Mutagenic potency, Revertants/µg ± S.E., TA98", "setting": "[1]; plate-incorporation, +S9", "result": "−0.1 ± 0.1", "unit": "rev/µg"},
      {"measurement": "Rev/plate", "setting": "[2]; [15]", "result": 132, "unit": "rev/plate"},
      {"measurement": "Rev/plate", "setting": "[2]; [16]", "result": 151, "unit": "rev/plate"},
      {"measurement": "Rev/plate", "setting": "[2]; [17]", "result": 147, "unit": "rev/plate"},
      {"measurement": "Rev/plate", "setting": "[2]; [18]", "result": 192, "unit": "rev/plate"},
      {"measurement": "Rev/plate", "setting": "[2]; [19]", "result": 193, "unit": "rev/plate"},
      {"measurement": "Rev/plate", "setting": "[2]; [20]", "result": 263, "unit": "rev/plate"},
      {"measurement": "Rev/plate", "setting": "[2]; TA100 +S9, Test 2, 40 µg/plate, zero-dose 84/78/80", "result": "161/116"},
      {"measurement": "Rev/plate", "setting": "[2]; TA100 +S9, Test 2, 80 µg/plate, zero-dose 84/78/80", "result": "129/144"},
      {"measurement": "Rev/plate", "setting": "[2]; TA100 +S9, Test 2, 120 µg/plate, zero-dose 84/78/80", "result": "127/129"},
      {"measurement": "Rev/plate", "setting": "[2]; TA100 +S9, Test 3, 40 µg/plate, zero-dose 127/118/125", "result": "210/248"},
      {"measurement": "Rev/plate", "setting": "[2]; TA100 +S9, Test 3, 80 µg/plate, zero-dose 127/118/125", "result": "306/328"},
      {"measurement": "Rev/plate", "setting": "[2]; TA100 +S9, Test 3, 120 µg/plate, zero-dose 127/118/125", "result": "375/304"},
      {"measurement": "Mutagenic potency, Revertants/µg ± S.E., TA100", "setting": "[2]", "result": "1.6 ± 0.7", "unit": "rev/µg"},
      {"measurement": "Mutagenicity call TA100", "setting": "[2]", "result": "(+) (Called mutagenic (+) based on showing reproducible, dose-related increases in rev/plate that reached or exceeded 2-fold relative to zero-dose controls)"},
      {"measurement": "Rev/plate", "setting": "[3]; TA104 +S9, Test 2, 40 µg/plate, zero-dose 276/260/270", "result": 457, "unit": "rev/plate"},
      {"measurement": "Rev/plate", "setting": "[3]; TA104 +S9, Test 2, 80 µg/plate, zero-dose 276/260/270", "result": 506, "unit": "rev/plate"},
      {"measurement": "Rev/plate", "setting": "[3]; TA104 +S9, Test 2, 120 µg/plate, zero-dose 276/260/270", "result": 507, "unit": "rev/plate"},
      {"measurement": "Mutagenic potency, Revertants/µg ± S.E., TA104", "setting": "[3]", "result": "2.5 ± 1.2", "unit": "rev/µg"}
    ]},
    {"molecule": "O[C@@H]1c2ccccc2-c2c(ccc3sccc23)[C@H]1O", "note": "(racemic) [P[3,4-b]T 6,7-diol, (± )-trans-6,7-Dihydrophenanthro[3,4-b]thiophene 6,7-diol]", "values": [
      {"measurement": "Rev/plate", "setting": "[1]; [4]", "result": 45, "unit": "rev/plate"},
      {"measurement": "Rev/plate", "setting": "[1]; [5]", "result": 47, "unit": "rev/plate"},
      {"measurement": "Rev/plate", "setting": "[1]; [6]", "result": 61, "unit": "rev/plate"},
      {"measurement": "Rev/plate", "setting": "[1]; [7]", "result": 62, "unit": "rev/plate"},
      {"measurement": "Rev/plate", "setting": "[1]; [8]", "result": 107, "unit": "rev/plate"},
      {"measurement": "Rev/plate", "setting": "[1]; [9]", "result": 130, "unit": "rev/plate"},
      {"measurement": "Rev/plate", "setting": "[1]; [10]", "result": "64/63"},
      {"measurement": "Rev/plate", "setting": "[1]; [11]", "result": "72/84"},
      {"measurement": "Rev/plate", "setting": "[1]; [12]", "result": "146/141"},
      {"measurement": "Rev/plate", "setting": "[1]; TA98 +S9, Test 2, 150 µg/plate, zero-dose 43/41/30", "result": "207/190"},
      {"measurement": "Rev/plate", "setting": "[1]; [13]", "result": "90/111"},
      {"measurement": "Rev/plate", "setting": "[1]; [14]", "result": "132/132"},
      {"measurement": "Rev/plate", "setting": "[1]; TA98 +S9, Test 3, 80 µg/plate, zero-dose 49/50/50", "result": "181/199"},
      {"measurement": "Rev/plate", "setting": "[1]; TA98 +S9, Test 3, 150 µg/plate, zero-dose 49/50/50", "result": "241/222"},
      {"measurement": "Mutagenic potency, Revertants/µg ± S.E., TA98", "setting": "[1]; plate-incorporation, +S9", "result": "1.4 ± 0.2", "unit": "rev/µg"},
      {"measurement": "Mutagenicity call TA98", "setting": "[1]; plate-incorporation, +S9", "result": "(+) (Called mutagenic (+) based on showing reproducible, dose-related increases in rev/plate that reached or exceeded 2-fold relative to zero-dose controls)"},
      {"measurement": "Rev/plate", "setting": "[2]; [15]", "result": 280, "unit": "rev/plate"},
      {"measurement": "Rev/plate", "setting": "[2]; [16]", "result": 461, "unit": "rev/plate"},
      {"measurement": "Rev/plate", "setting": "[2]; [17]", "result": 580, "unit": "rev/plate"},
      {"measurement": "Rev/plate", "setting": "[2]; [18]", "result": 1052, "unit": "rev/plate"},
      {"measurement": "Rev/plate", "setting": "[2]; [19]", "result": 1172, "unit": "rev/plate"},
      {"measurement": "Rev/plate", "setting": "[2]; [20]", "result": 1286, "unit": "rev/plate"},
      {"measurement": "Rev/plate", "setting": "[2]; TA100 +S9, Test 2, 2 µg/plate, zero-dose 84/78/80", "result": "224/217"},
      {"measurement": "Rev/plate", "setting": "[2]; TA100 +S9, Test 2, 5 µg/plate, zero-dose 84/78/80", "result": "369/364"},
      {"measurement": "Rev/plate", "setting": "[2]; TA100 +S9, Test 2, 10 µg/plate, zero-dose 84/78/80", "result": "746/565"},
      {"measurement": "Rev/plate", "setting": "[2]; TA100 +S9, Test 2, 20 µg/plate, zero-dose 84/78/80", "result": "593/607"},
      {"measurement": "Rev/plate", "setting": "[2]; TA100 +S9, Test 3, 2 µg/plate, zero-dose 127/118/125", "result": "305/298"},
      {"measurement": "Rev/plate", "setting": "[2]; TA100 +S9, Test 3, 5 µg/plate, zero-dose 127/118/125", "result": "573/564"},
      {"measurement": "Rev/plate", "setting": "[2]; TA100 +S9, Test 3, 10 µg/plate, zero-dose 127/118/125", "result": "862/714"},
      {"measurement": "Rev/plate", "setting": "[2]; TA100 +S9, Test 3, 20 µg/plate, zero-dose 127/118/125", "result": "1142/1113"},
      {"measurement": "Mutagenic potency, Revertants/µg ± S.E., TA100", "setting": "[2]", "result": "59.8 ± 6.1", "unit": "rev/µg"},
      {"measurement": "Mutagenicity call TA100", "setting": "[2]", "result": "(+) (Called mutagenic (+) based on showing reproducible, dose-related increases in rev/plate that reached or exceeded 2-fold relative to zero-dose controls)"},
      {"measurement": "Rev/plate", "setting": "[3]; TA104 +S9, Test 2, 2 µg/plate, zero-dose 276/260/270", "result": "365/338"},
      {"measurement": "Rev/plate", "setting": "[3]; TA104 +S9, Test 2, 5 µg/plate, zero-dose 276/260/270", "result": "407/431"},
      {"measurement": "Rev/plate", "setting": "[3]; TA104 +S9, Test 2, 10 µg/plate, zero-dose 276/260/270", "result": "475/484"},
      {"measurement": "Rev/plate", "setting": "[3]; TA104 +S9, Test 2, 20 µg/plate, zero-dose 276/260/270", "result": "538/576"},
      {"measurement": "Rev/plate", "setting": "[3]; TA104 +S9, Test 3, 2 µg/plate, zero-dose 402/395/336", "result": "475/419"},
      {"measurement": "Rev/plate", "setting": "[3]; TA104 +S9, Test 3, 5 µg/plate, zero-dose 402/395/336", "result": "498/541"},
      {"measurement": "Rev/plate", "setting": "[3]; TA104 +S9, Test 3, 10 µg/plate, zero-dose 402/395/336", "result": "532/550"},
      {"measurement": "Rev/plate", "setting": "[3]; TA104 +S9, Test 3, 20 µg/plate, zero-dose 402/395/336", "result": "533/627"},
      {"measurement": "Mutagenic potency, Revertants/µg ± S.E., TA104", "setting": "[3]", "result": "24.9 ± 8.3", "unit": "rev/µg"}
    ]}
  ]
}
